Measured values as given in patent publication US9115122B2, “Non-ATP dependent inhibitors of extracellular signal-regulated kinase (ERK)” (UNIVERSITY OF MARYLAND, BALTIMORE, priority 2012, dated 2015).

Legend:
ERK2 L232A = ERK2 L232A (Rattus norvegicus (Rat), UniProt P63086, L232A); test: Fluorescence quenching (FQ) binding affinity; settings: read-out: KD L232A (Site 5)
ERK2 Y191A = ERK2 Y191A (Rattus norvegicus (Rat), UniProt P63086, Y191A); test: Fluorescence quenching (FQ) binding affinity; settings: read-out: KD Y191A (Site 2)
Chain of ERK2 Y191A (P63086 whole entry Y191A): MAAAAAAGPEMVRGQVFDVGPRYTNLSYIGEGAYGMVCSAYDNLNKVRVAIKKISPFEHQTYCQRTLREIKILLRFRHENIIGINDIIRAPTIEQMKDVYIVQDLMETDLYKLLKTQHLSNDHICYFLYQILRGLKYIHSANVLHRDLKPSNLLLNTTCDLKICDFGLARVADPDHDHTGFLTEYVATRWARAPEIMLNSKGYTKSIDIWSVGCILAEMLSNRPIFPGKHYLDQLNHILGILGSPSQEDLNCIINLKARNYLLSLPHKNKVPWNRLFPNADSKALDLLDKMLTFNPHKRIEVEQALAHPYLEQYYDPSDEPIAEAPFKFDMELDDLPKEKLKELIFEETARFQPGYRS

ERK2 L198A/L235A = ERK2 L198A/L235A (Rattus norvegicus (Rat), UniProt P63086, L198A/L235A); test: Fluorescence quenching (FQ) binding affinity; settings: read-out: KD L198A/L235A (Site 5)
Chain of ERK2 L198A/L235A (P63086 whole entry L198A/L235A): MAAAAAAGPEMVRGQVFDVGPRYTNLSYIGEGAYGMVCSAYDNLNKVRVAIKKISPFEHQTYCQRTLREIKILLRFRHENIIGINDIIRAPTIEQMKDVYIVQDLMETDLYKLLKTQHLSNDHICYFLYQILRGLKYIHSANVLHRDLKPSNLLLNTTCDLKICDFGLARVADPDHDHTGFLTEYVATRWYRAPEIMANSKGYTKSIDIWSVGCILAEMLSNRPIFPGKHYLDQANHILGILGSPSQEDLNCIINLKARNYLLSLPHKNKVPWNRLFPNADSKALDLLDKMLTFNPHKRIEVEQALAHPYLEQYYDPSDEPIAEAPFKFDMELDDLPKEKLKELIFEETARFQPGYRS

[1] = test system: ERK1/2-mediated phosphorylation of Elk-1; test: Immunoblot of ERK1/2-mediated Elk-1 phosphorylation in EGF treated HeLa cells; assay type: cell-based; settings: 100 μM, EGF 25 ng/mL 10 min
Procedure: (b) HeLa cells were pre-incubated for 30 min with indicated compounds (100 μM) followed by treatment with EGF (25 ng/mL) for 10 min. to activate ERK1/2 signaling. Lysates were immunoblotted for phosphorylated Elk1 (pElk1 S383) or active ERK1/2 (pERK1/2). […] The MEK1/2 inhibitor U0126 (10 μM) was used to block all ERK1/2 signaling and α-tubulin expression was used as a protein loading control.
Proteins were separated by SDS-PAGE, analyzed by immunoblotting, and detected using enhanced chemiluminescence (ECL, GE Healthcare, United Kingdom).

ERK2 L198A/L232A = ERK2 L198A/L232A (Rattus norvegicus (Rat), UniProt P63086, L198A/L232A); test: Fluorescence quenching (FQ) binding affinity; settings: read-out: KD L198A/L232A (Site 5)
Chain of ERK2 L198A/L232A (P63086 whole entry L198A/L232A): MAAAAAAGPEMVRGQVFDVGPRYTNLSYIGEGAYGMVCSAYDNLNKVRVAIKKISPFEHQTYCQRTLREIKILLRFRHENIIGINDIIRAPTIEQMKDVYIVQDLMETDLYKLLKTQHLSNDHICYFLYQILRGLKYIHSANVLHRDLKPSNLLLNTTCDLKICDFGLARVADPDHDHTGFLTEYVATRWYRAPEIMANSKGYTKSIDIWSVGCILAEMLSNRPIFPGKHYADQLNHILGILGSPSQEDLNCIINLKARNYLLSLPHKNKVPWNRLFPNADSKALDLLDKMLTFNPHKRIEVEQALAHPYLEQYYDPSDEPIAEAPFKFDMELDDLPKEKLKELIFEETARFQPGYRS

[2] = test system: MEK1-induced AP-1 promoter activity; test: AP-1 promoter luciferase assay, HeLa cells expressing active MEK1 mutant; assay type: cell-based; settings: Homo sapiens, 4 hours, read-out: IC50 inhibition of MEK1-induced AP-1 promoter activity
Procedure: FIG. 4. Compound SF-3-026 and analogs inhibit SRE and AP-1 transcription factor function. (a) HeLa cells were transfected with constructs containing SRE or AP-1 promoters driving luciferase expression and then stimulated with EGF in the presence or absence of SF-3-026 for 4 hours followed by measurements of luciferase activity. Cells treated with U0126 were used as a positive inhibitor control. (b and c) HeLa cells were prepared and treated as in (a) with the indicated concentrations of SF-3-026 or analogs for 4 hours followed by the measurement of luciferase activity regulated by the SRE (b) or AP-1 (c) promoters. Data in (b and c) were normalized to EGF-only treatment and represent the mean and standard deviation from three independent experiments. (d) Compound SF-3-026 and analogs inhibit MEK1-induced AP-1 transcription factor function. HeLa cells were transfected with the AP-1 promoter construct and a constitutively active MEK1 mutant in the presence (10 μM) or absence of the MEK1/2 inhibitor (U0126) or an ATP-competitive ERK inhibitor (ERKi) for 4 hours followed by measurements of luciferase activity. (e) Cells expressing the AP-1 promoter and an active MEK-1 construct were treated with the indicated concentrations of SF-3-026 or analogs for 4 hours followed by the measurement of luciferase activity. Data in (e) were normalized to active MEK1-only treatment and represent the mean and standard deviation from three independent experiments.
HeLa cells were seeded in 24-well plates (40,000 cells/well) and incubated 18 hours to achieve ˜60-70% confluent. Cells were transfected with activator protein-1 (pAP1(PMA)-TA-Luc; Clontech) or the serum response element (pGL4.33-SRE; Promega) luciferase reporter plasmids (250 ng/well) using Lipofectamine™ (Invitrogen). After 16 hours, cells were pre-treated with varying amounts of compounds as indicated for 20 minutes, followed by stimulation with EGF (25 ng/mL) for 4.5 hr. In some experiments, cells transfected with the pAP1(PMA)-TA-Luc promoter and a constitutively active MEK1 mutant cDNA were treated with varying amounts of compounds during the last 4 hours of incubation. The luciferase activity in the cell extracts was determined with a Dual Luciferase Assay System (Promega) according to the manufacturer's instructions. Luciferase activities were monitored with a Lumat LB 9507 luminometer (Berthold Technology) and data were normalized to the amount of protein in each sample. […]

[3] = test system: HeLa cervical carcinoma cells; test: Cell proliferation, fluorescent Cell Titer Blue Assay (Example 1); assay type: cell-based; settings: Homo sapiens, 48 hours
Procedure: (§1) FIG. 5. Dose dependent inhibition of cancer cell proliferation in vitro by SF-3-026 and analogs. A375 (closes circles), RPM17951 (closed squares), HeLa (open circles), or Jurkat (open squares) cells were treated for 48 hours with indicated concentration of (a) SF-3-026, (b) SF-2-027, (c) SF-2-029, or (d) SF-2-030 and cell proliferation was assessed by the fluorescent Cell Titer Blue Assay. The data were reproduced in 3 separate experiments.
(§2) Cells were seeded at 25,000 cells/well in 96-well plate and cultured overnight. Cells were treated for 24 hours with various concentrations of compounds and cell viability or caspase 3/7 activity were measured according to manufacturer's instructions using the fluorescent Cell Titer Blue Assay (Promega) or luminescent Caspase 3/7 Glo Assay (Promega).
(§3) It was next determined whether inhibition of AP-1 proteins by SF-3-026 and analogs affected the proliferation of cancer cells driven by mutations that constitutively activate the ERK1/2 pathway. For these experiments, A375 and RPMI7951 melanoma cells, which have a valine to glutamate mutation on residue 600 in BRaf that causes constitutive ERK1/2 activation, were chosen. Moreover, RPMI7951 cells are resistant to clinically used BRaf inhibitors due to overexpression of MAP3K8 (the gene encoding COT/Tp12) that re-activates ERK1/2 signaling. Both melanoma cells lines were treated with varying doses of SF-3-026 or analogs and cell viability was compared to HeLa cervical carcinoma and Jurkat T-cell leukemia cells, which are p53 defective but contain no known activating mutations in the ERK1/2 pathway.

[4] = test system: Jurkat T-cell leukemia cells; test: as above; assay type: cell-based; settings: Homo sapiens, 48 hours
Procedure: as §1, §2, §3

A375 melanoma cells = test: as above; assay type: cell-based; settings: Homo sapiens, A-375; 48 hours
Procedure: as §1, §2, §3

RPMI7951 melanoma cells = test: as above; assay type: cell-based; settings: Homo sapiens, RPMI-7951; 48 hours
Procedure: as §1, §2, §3

ERK2 vs p38α MAP kinase = test: Selectivity for ERK2 compared to p38α MAP kinase; assay type: binding
ERK2 R275A = ERK2 R275A (Rattus norvegicus (Rat), UniProt P63086, R275A); test: Fluorescence quenching (FQ) binding affinity; settings: read-out: KD R275A (Site 3)
Chain of ERK2 R275A (P63086 whole entry R275A): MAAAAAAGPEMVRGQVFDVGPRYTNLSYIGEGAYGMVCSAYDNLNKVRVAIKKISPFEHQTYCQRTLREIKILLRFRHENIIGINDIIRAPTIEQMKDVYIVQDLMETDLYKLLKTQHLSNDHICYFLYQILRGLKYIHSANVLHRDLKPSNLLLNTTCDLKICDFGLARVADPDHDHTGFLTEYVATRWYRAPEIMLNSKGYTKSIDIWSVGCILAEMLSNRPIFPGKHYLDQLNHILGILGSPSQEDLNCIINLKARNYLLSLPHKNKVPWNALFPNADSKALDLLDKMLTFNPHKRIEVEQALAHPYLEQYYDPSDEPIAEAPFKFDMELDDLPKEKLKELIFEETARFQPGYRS

ERK2 wild type (WT) = ERK2 wild type (WT) (Rattus norvegicus (Rat), UniProt P63086); test: Fluorescence quenching (FQ) binding affinity; settings: 1 nM to 20 μM test compound
Chain of ERK2 wild type (WT) (P63086 whole entry): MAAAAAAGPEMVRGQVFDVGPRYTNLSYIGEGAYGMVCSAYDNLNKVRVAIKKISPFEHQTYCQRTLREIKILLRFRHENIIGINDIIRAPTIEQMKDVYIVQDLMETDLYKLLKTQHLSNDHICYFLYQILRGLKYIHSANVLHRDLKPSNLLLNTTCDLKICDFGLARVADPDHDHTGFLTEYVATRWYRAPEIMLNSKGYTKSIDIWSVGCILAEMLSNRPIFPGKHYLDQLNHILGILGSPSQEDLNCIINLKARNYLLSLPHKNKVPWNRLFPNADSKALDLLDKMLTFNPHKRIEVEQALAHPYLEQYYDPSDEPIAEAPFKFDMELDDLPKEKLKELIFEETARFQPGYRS

Chain of ERK2 L232A (P63086 whole entry L232A): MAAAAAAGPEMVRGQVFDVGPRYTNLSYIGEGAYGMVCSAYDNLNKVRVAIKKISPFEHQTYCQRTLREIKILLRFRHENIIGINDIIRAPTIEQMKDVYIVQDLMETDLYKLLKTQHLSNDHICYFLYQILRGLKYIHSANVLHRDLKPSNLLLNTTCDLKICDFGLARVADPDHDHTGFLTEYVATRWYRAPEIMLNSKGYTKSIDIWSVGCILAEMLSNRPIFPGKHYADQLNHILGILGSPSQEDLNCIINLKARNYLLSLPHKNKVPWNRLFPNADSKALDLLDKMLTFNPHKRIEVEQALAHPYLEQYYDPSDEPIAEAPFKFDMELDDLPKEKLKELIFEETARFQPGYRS

- Kd (ERK2 L232A): 0.13 µM
- Kd (ERK2 Y191A): 0.13 µM
- Kd (ERK2 L198A/L235A): > 20 µM
- Kd (ERK2 L198A/L232A): 0.14 ± 0.02 µM
- IC50 [2]: ~40 µM
- GI50 [3]: 32 µM
- GI50 [4]: > 50 µM
- GI50 (A375 melanoma cells): 7.8 µM
- GI50 (RPMI7951 melanoma cells): 5.1 µM
- selectivity for ERK2 as compared to p38α MAP kinase (ERK2 vs p38α MAP kinase): ~150 fold
- Kd (ERK2 R275A): 0.24 µM
- Kd (ERK2 wild type (WT)): 0.13 ± 0.02 µM
SMILES: O=S1(=O)C=CC(OS(=O)(=O)c2ccccc2)C1 (stereo not shown) [SF-3-026]
- inhibition of ERK1/2-mediated Elk-1 phosphorylation [1]: inhibit ERK1/2-mediated phosphorylation
